Data as given in paper PMC4890880 (ACS infectious diseases, 2016).

system: HepG2-A16-CD81EGFP cells; assay: cells; details: Homo sapiens, HepG2, read-out: HepG2 Tox% @ 50 uM rep1

SMILES	cytotoxicity at 50 µM [%]
Cc1ccc(Nc2nc(-c3ccccn3)cs2)cc1 [MMV007907]	93
O=C(O)C1Cc2c([nH]c3ccccc23)C(c2ccc(Cl)cc2Cl)N1 (stereo not drawn) [MMV008138]	49
COC(=O)c1ccc(C2C3=C(O)CC(c4ccc(F)cc4)CC3=Nc3ccccc3N2C(=O)c2ccccc2)cc1 (stereo not drawn) [MMV011438]	-12
Cc1ccc(Nc2nc(N)c3ccccc3n2)cc1Cl [MMV011522]	97
Nc1ccc(-c2nc3cc(Oc4ccc(Oc5ccc6[nH]c(-c7ccc(N)cc7)nc6c5)cc4)ccc3[nH]2)cc1 [MMV011895]	97
O=C(Nc1ccc(-c2nc3cc4ccccc4cc3[nH]2)cc1)c1cccc(Br)c1 [MMV019241]	41
Cc1sc2ncnc(Sc3nc4ccccc4[nH]3)c2c1C [MMV019266]	31
c1ccc2c(NCCCCCCNc3c4c(nc5ccccc35)CCCC4)c3c(nc2c1)CCCC3 [MMV019555]	100
COc1ccc(C2NCCc3c2[nH]c2ccccc32)cc1CN1CCN(c2ccc(F)cc2)CC1 (stereo not drawn) [MMV019690]	101
Cc1[nH]c(-c2ccc(F)cc2)cc1C(=O)NC1CCN(Cc2ccccc2)CC1 [MMV019738]	97
Cc1ccc(C)c(Cn2c(N3CCC(C(=O)NCc4cccs4)CC3)nc3ccccc32)c1 [MMV019741]	98

same assay, conditions: Homo sapiens, HepG2, read-out: HepG2 Tox% @ 50 uM rep2

SMILES	cytotoxicity at 50 µM [%]
Cc1ccc(Nc2nc(-c3ccccn3)cs2)cc1 [MMV007907]	96
O=C(O)C1Cc2c([nH]c3ccccc23)C(c2ccc(Cl)cc2Cl)N1 (stereo not drawn) [MMV008138]	53
Cc1sc2ncnc(Sc3nc4ccccc4[nH]3)c2c1C [MMV019266]	47
Cc1[nH]c(-c2ccc(F)cc2)cc1C(=O)NC1CCN(Cc2ccccc2)CC1 [MMV019738]	98

same assay, conditions: Homo sapiens, HepG2, read-out: Tox IC50

SMILES	IC50 [µM]
COC(=O)c1ccc(C2C3=C(O)CC(c4ccc(F)cc4)CC3=Nc3ccccc3N2C(=O)c2ccccc2)cc1 (stereo not drawn) [MMV011438]	> 50
Nc1ccc(-c2nc3cc(Oc4ccc(Oc5ccc6[nH]c(-c7ccc(N)cc7)nc6c5)cc4)ccc3[nH]2)cc1 [MMV011895]	12.8
Cc1sc2ncnc(Sc3nc4ccccc4[nH]3)c2c1C [MMV019266]	> 50
c1ccc2c(NCCCCCCNc3c4c(nc5ccccc35)CCCC4)c3c(nc2c1)CCCC3 [MMV019555]	14.5
COc1ccc(C2NCCc3c2[nH]c2ccccc32)cc1CN1CCN(c2ccc(F)cc2)CC1 (stereo not drawn) [MMV019690]	10.8

same assay, conditions: Homo sapiens, HepG2, read-out: Tox max inhibition (%) @ 50 uM

SMILES	inhibition at 50 µM [%]
COC(=O)c1ccc(C2C3=C(O)CC(c4ccc(F)cc4)CC3=Nc3ccccc3N2C(=O)c2ccccc2)cc1 (stereo not drawn) [MMV011438]	8
Nc1ccc(-c2nc3cc(Oc4ccc(Oc5ccc6[nH]c(-c7ccc(N)cc7)nc6c5)cc4)ccc3[nH]2)cc1 [MMV011895]	100
Cc1sc2ncnc(Sc3nc4ccccc4[nH]3)c2c1C [MMV019266]	28
c1ccc2c(NCCCCCCNc3c4c(nc5ccccc35)CCCC4)c3c(nc2c1)CCCC3 [MMV019555]	101
COc1ccc(C2NCCc3c2[nH]c2ccccc32)cc1CN1CCN(c2ccc(F)cc2)CC1 (stereo not drawn) [MMV019690]	100

system: Plasmodium berghei (Pb-Luc) exoerythrocytic-stage parasites; assay: microbe, parasite or virus in culture; details: read-out: Inhibition% @ 50 uM rep1

SMILES	inhibition at 50 µM [%]
Cc1ccc(Nc2nc(-c3ccccn3)cs2)cc1 [MMV007907]	103
O=C(O)C1Cc2c([nH]c3ccccc23)C(c2ccc(Cl)cc2Cl)N1 (stereo not drawn) [MMV008138]	88
COC(=O)c1ccc(C2C3=C(O)CC(c4ccc(F)cc4)CC3=Nc3ccccc3N2C(=O)c2ccccc2)cc1 (stereo not drawn) [MMV011438]	98
Cc1ccc(Nc2nc(N)c3ccccc3n2)cc1Cl [MMV011522]	100
Nc1ccc(-c2nc3cc(Oc4ccc(Oc5ccc6[nH]c(-c7ccc(N)cc7)nc6c5)cc4)ccc3[nH]2)cc1 [MMV011895]	98
O=C(Nc1ccc(-c2nc3cc4ccccc4cc3[nH]2)cc1)c1cccc(Br)c1 [MMV019241]	91
Cc1sc2ncnc(Sc3nc4ccccc4[nH]3)c2c1C [MMV019266]	98
c1ccc2c(NCCCCCCNc3c4c(nc5ccccc35)CCCC4)c3c(nc2c1)CCCC3 [MMV019555]	104
COc1ccc(C2NCCc3c2[nH]c2ccccc32)cc1CN1CCN(c2ccc(F)cc2)CC1 (stereo not drawn) [MMV019690]	103
Cc1[nH]c(-c2ccc(F)cc2)cc1C(=O)NC1CCN(Cc2ccccc2)CC1 [MMV019738]	103
Cc1ccc(C)c(Cn2c(N3CCC(C(=O)NCc4cccs4)CC3)nc3ccccc32)c1 [MMV019741]	103

same assay, conditions: read-out: Inhibition% @ 50 uM rep2

SMILES	inhibition at 50 µM [%]
Cc1ccc(Nc2nc(-c3ccccn3)cs2)cc1 [MMV007907]	106
O=C(O)C1Cc2c([nH]c3ccccc23)C(c2ccc(Cl)cc2Cl)N1 (stereo not drawn) [MMV008138]	91
COC(=O)c1ccc(C2C3=C(O)CC(c4ccc(F)cc4)CC3=Nc3ccccc3N2C(=O)c2ccccc2)cc1 (stereo not drawn) [MMV011438]	96
Cc1ccc(Nc2nc(N)c3ccccc3n2)cc1Cl [MMV011522]	99
Nc1ccc(-c2nc3cc(Oc4ccc(Oc5ccc6[nH]c(-c7ccc(N)cc7)nc6c5)cc4)ccc3[nH]2)cc1 [MMV011895]	99
O=C(Nc1ccc(-c2nc3cc4ccccc4cc3[nH]2)cc1)c1cccc(Br)c1 [MMV019241]	91
Cc1sc2ncnc(Sc3nc4ccccc4[nH]3)c2c1C [MMV019266]	102
c1ccc2c(NCCCCCCNc3c4c(nc5ccccc35)CCCC4)c3c(nc2c1)CCCC3 [MMV019555]	104
COc1ccc(C2NCCc3c2[nH]c2ccccc32)cc1CN1CCN(c2ccc(F)cc2)CC1 (stereo not drawn) [MMV019690]	103
Cc1[nH]c(-c2ccc(F)cc2)cc1C(=O)NC1CCN(Cc2ccccc2)CC1 [MMV019738]	102
Cc1ccc(C)c(Cn2c(N3CCC(C(=O)NCc4cccs4)CC3)nc3ccccc32)c1 [MMV019741]	104

same assay, conditions: read-out: PbLuc IC50

SMILES	IC50 [µM]
c1ccc2c(NCCCCCCNc3c4c(nc5ccccc35)CCCC4)c3c(nc2c1)CCCC3 [MMV019555]	1.39

same assay, conditions: read-out: PbLuc IC50, dose response, 1/3 dilutions, max conc. 10 or 50 uM, unit inferred

SMILES	IC50 [µM]
COC(=O)c1ccc(C2C3=C(O)CC(c4ccc(F)cc4)CC3=Nc3ccccc3N2C(=O)c2ccccc2)cc1 (stereo not drawn) [MMV011438]	3.16
Nc1ccc(-c2nc3cc(Oc4ccc(Oc5ccc6[nH]c(-c7ccc(N)cc7)nc6c5)cc4)ccc3[nH]2)cc1 [MMV011895]	6.98
Cc1sc2ncnc(Sc3nc4ccccc4[nH]3)c2c1C [MMV019266]	0.53
COc1ccc(C2NCCc3c2[nH]c2ccccc32)cc1CN1CCN(c2ccc(F)cc2)CC1 (stereo not drawn) [MMV019690]	6.28

same assay, conditions: read-out: PbLuc max inhibition (%) @ 50 uM

SMILES	inhibition at 50 µM [%]
COC(=O)c1ccc(C2C3=C(O)CC(c4ccc(F)cc4)CC3=Nc3ccccc3N2C(=O)c2ccccc2)cc1 (stereo not drawn) [MMV011438]	97
Nc1ccc(-c2nc3cc(Oc4ccc(Oc5ccc6[nH]c(-c7ccc(N)cc7)nc6c5)cc4)ccc3[nH]2)cc1 [MMV011895]	99
Cc1sc2ncnc(Sc3nc4ccccc4[nH]3)c2c1C [MMV019266]	101
c1ccc2c(NCCCCCCNc3c4c(nc5ccccc35)CCCC4)c3c(nc2c1)CCCC3 [MMV019555]	100
COc1ccc(C2NCCc3c2[nH]c2ccccc32)cc1CN1CCN(c2ccc(F)cc2)CC1 (stereo not drawn) [MMV019690]	99
